Some test systems named below: DLD-1 colon; HOP-18 NSCLC; KM20L2 colon; SNB-78 CNS; DMS 114 small cell lung; BT-549 breast; DU-145 prostate; MDA-MB-435; NCI/ADR-RES ovarian; T-47D breast.
Assay in all cases: NCI anticancer screen, dose series, 48 h

Several values for one entry are separate records, joined by “and”; a condition that tells them apart may be missing. Identical values can stand only once.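 All cell lines were grown in 96-well plates and treated with compound for 48 hours. GI50 = concentration required for 50% inhibition of growth. Definition used: TGI = concentration required for complete inhibition of growth.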

Regarding `CC(=O)[CH-]C(=O)c1ccccc1.CC(=O)[CH-]C(=O)c1ccccc1.CC(C)CCCC(C)[C@H]1CCC2[C@@H]3CCC4C[C@@H]([O-])CC[C@]4(C)C3CC[C@@]21C.CC(C)CCCC(C)[C@H]1CCC2[C@@H]3CCC4C[C@@H]([O-])CC[C@]4(C)C3CC[C@@]21C.Cl.[Ti+4]` (stereo not given in full), the GI50 in the assay with DLD-1 colon, in the assay on HOP-18 NSCLC and with KM20L2 colon was over 25 µM in each case. The TGI in the assay on DLD-1 colon, in the assay on HOP-18 NSCLC and in the assay on KM20L2 colon was over 25 µM in each case.
As for `COC(=O)/C=C\C1C(C(=O)OC)C2(C(=O)OC)CCC1(C(=O)OC)N2` (stereo not given), the TGI in the assay on DLD-1 colon was 12.4 µM; in the assay on HOP-18 NSCLC, 28.9 µM; in the assay on KM20L2 colon it was over 61.8 µM; in the assay with SNB-78 CNS, 35.9 µM.
On to `COC(=O)c1c(C(=O)OC)c(C(=O)OC)c(C(=O)OC)c1C(=O)OC`, for which the TGI with DLD-1 colon, with DMS 114 small cell lung, in the assay with HOP-18 NSCLC and with KM20L2 colon was over 100 µM each time.
With `CCN(CC)CCNc1ccc(CO)c2sc3ccccc3c(=O)c12`, the GI50 with BT-549 breast is 6.99 µM; with DU-145 prostate it was 2.99 µM; in the assay on HOP-18 NSCLC, 3.02 µM and 11.4 µM; in the assay on MDA-MB-435, 2.49 µM; in the assay with NCI/ADR-RES ovarian, 2.99 µM and 4.29 µM and 7.25 µM; with T-47D breast it was 4.84 µM. Further, the TGI is 21.9 µM and 26.9 µM with BT-549 breast; 27.5 µM and 23 µM with DMS 114 small cell lung; 9.87 µM and 27.6 µM in the assay with DU-145 prostate; 29.7 µM and 24.6 µM in the assay on HOP-18 NSCLC; 18.4 µM and 22.6 µM in the assay with KM20L2 colon; 7.56 µM and 11.3 µM in the assay with MDA-MB-435. Besides, the TGI is 17 µM and 17.3 µM and 21 µM in the assay with NCI/ADR-RES ovarian; 35.1 µM and 28.4 µM in the assay on SNB-78 CNS; 17.8 µM and 28.6 µM with T-47D breast.
For `CCCCCCCCCCSS(=O)(=O)c1ccc(C)cc1`, the TGI with DLD-1 colon came to 29.8 µM; in the assay on DMS 114 small cell lung it was 30.4 µM; in the assay on HOP-18 NSCLC, 43.1 µM; in the assay on KM20L2 colon, 33.3 µM; in the assay with SNB-78 CNS, 29.5 µM.
Regarding `CC(=O)[CH-]C(=O)c1ccccc1.CC(=O)[CH-]C(=O)c1ccccc1.[O-]c1ccc(O)cc1.[O-]c1ccc(O)cc1.[Ti+4]`, the GI50 in the assay with DLD-1 colon was 16.6 µM; in the assay with HOP-18 NSCLC, 27.1 µM; with KM20L2 colon it was 24.5 µM. The TGI with DLD-1 colon turned out to be 37.6 µM; with HOP-18 NSCLC, 72.2 µM; in the assay on KM20L2 colon, 66.9 µM.
With `O=C1c2ccccc2C(=O)N1C/C=N/NS(=O)(=O)c1ccc(Cl)cc1`, the TGI in the assay on DLD-1 colon, in the assay with DMS 114 small cell lung and in the assay with KM20L2 colon was over 100 µM in each case.
For the molecule `CCCC(=O)C(CC)/C(CCC(=O)N(Cc1ccccc1)Cc1ccccc1)=N/NC(=O)C[N+](C)(C)C` (stereo not given), the TGI with DLD-1 colon, with DMS 114 small cell lung, in the assay on HOP-18 NSCLC, in the assay with KM20L2 colon and in the assay on SNB-78 CNS was over 100 µM in each case.
For `CCC1(c2ccncc2)CCC(=O)NC1=O` (stereo not given), the TGI with DLD-1 colon, in the assay with DMS 114 small cell lung, in the assay on KM20L2 colon and with SNB-78 CNS was over 100 µM each time.
With `COC(=O)/C1=C/C2CC(/C=C(/c3ccccc3)C(=O)O1)C2`, the TGI is over 100 µM with DLD-1 colon, 55.8 µM in the assay on DMS 114 small cell lung and over 100 µM in the assay on HOP-18 NSCLC.
`c1ccc2c(c1)[Se]c1ccccc1[Se]2`: the TGI was over 100 µM with DLD-1 colon; over 100 µM with DMS 114 small cell lung; 98.6 µM in the assay on HOP-18 NSCLC; over 100 µM with KM20L2 colon; over 100 µM with SNB-78 CNS.
Regarding `CC(=O)N1C(=O)C(=O)c2cc(Cl)ccc21`, the TGI with DLD-1 colon, with DMS 114 small cell lung, in the assay on HOP-18 NSCLC and with SNB-78 CNS was over 100 µM throughout.
For the molecule `CN(C)CC1CCC(CN(C)C)C1=NO` (stereo not given), the TGI in the assay on DLD-1 colon, in the assay on DMS 114 small cell lung, in the assay on HOP-18 NSCLC, with KM20L2 colon and in the assay with SNB-78 CNS was over 100 µM in each case.
Consider `O=C(/C=C/c1ccccc1)c1ccc(O)c(CN2CCN(c3cc4c(cc3F)c(=O)c(C(=O)O)cn4C3CC3)CC2)c1`, for which the GI50 in the assay on BT-549 breast is 0.989 µM; with DU-145 prostate it was 1.53 µM; with MDA-MB-435, 1.5 µM; in the assay on NCI/ADR-RES ovarian, 7.86 µM; with T-47D breast, 1.77 µM. Also, the TGI was 26.3 µM with BT-549 breast; over 100 µM with DU-145 prostate; 25.7 µM in the assay with MDA-MB-435; over 100 µM with NCI/ADR-RES ovarian; over 100 µM with T-47D breast.
Turning to `Cc1cc(C)c(S(=O)(=O)Oc2ccccc2[N+](=O)[O-])c(C)c1`, the GI50 is 3.19 µM with BT-549 breast; 2.38 µM with DU-145 prostate; 0.239 µM with MDA-MB-435; 1.01 µM in the assay with NCI/ADR-RES ovarian; 4.79 µM with T-47D breast. Also, the TGI in the assay with BT-549 breast was over 100 µM; in the assay on DU-145 prostate, over 31.5 µM; with MDA-MB-435, 0.879 µM; with NCI/ADR-RES ovarian it was over 27.4 µM; in the assay on T-47D breast, over 100 µM.
Turning to `COc1ccc2c(CCNS(=O)(=O)c3ccccc3)c(C(C)=O)[nH]c2c1[N+](=O)[O-]`, the TGI in the assay with KM20L2 colon and in the assay on SNB-78 CNS was over 100 µM in each case.
For the molecule `CC[O+]=c1cccc2ssnc1-2`, the TGI in the assay with DLD-1 colon, in the assay on HOP-18 NSCLC, in the assay on KM20L2 colon and in the assay on SNB-78 CNS was over 100 µM throughout.
On to `Nc1nc(N)c2ncn(Cc3c(Cl)cccc3Cl)c2n1`, for which the TGI with BT-549 breast, with DU-145 prostate, in the assay on MDA-MB-435, with NCI/ADR-RES ovarian and in the assay on T-47D breast was over 100 µM in each case.

These data come from PubChem BioAssay (NCI).
